Data from the supplement of paper PMC10331698.
± gives the standard deviation of the averaged measurements.

How the values were obtained:
Test in all cases: level (log10 ratio to DMSO vehicle control); higher = higher biomarker level / cell amount than vehicle control
Conditions in all cases: in DMSO
1-(Perfluorohexyl)octane = compound: CCCCCCCCC(F)(F)C(F)(F)C(F)(F)C(F)(F)C(F)(F)C(F)(F)F [1-(Perfluorohexyl)octane]
Method: (§1)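 BioMAP Diversity Plus panel of 12 human primary cell co-culture systems (3C, 4H, LPS, SAg, BT, BF4T, BE3C, CASM3C, HDF3CGF, KF3CT, MyoF, Mphg). Compounds were added 1 h before stimulation and left for 24 h (MyoF 48 h; BT 72 h for soluble read-outs or 6 d for IgG). Biomarkers were read by ELISA, cytotoxicity by SRB, PBMC viability and proliferation by Alamar Blue. Each well value was divided by the mean of 8 DMSO control wells on the same plate and log10 transformed; duplicate blinded samples were tested at 4 concentrations.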

[1] = compound: CNS(=O)(=O)C(F)(F)C(F)(F)C(F)(F)C(F)(F)C(F)(F)C(F)(F)C(F)(F)C(F)(F)F [N-Methylperfluorooctanesulfonamide]
Method: as §1

[2] = compound: O=C(O)C(F)(F)C(F)(F)C(F)(F)C(F)(F)C(F)(F)C(F)(F)C(F)(F)C(F)(F)C(F)(F)C(F)(F)C(F)(F)C(F)(F)C(F)(F)F [Perfluorotetradecanoic acid]
Method: as §1

[3] = compound: O=C(O)C(F)(F)C(F)(F)C(F)(F)C(F)(F)C(F)(F)C(F)(F)C(F)(F)C(F)(F)C(F)(F)C(F)(F)C(F)(F)C(F)(F)F [Perfluorotridecanoic acid]
Method: as §1

Perfluorohexanoic acid = compound: O=C(O)C(F)(F)C(F)(F)C(F)(F)C(F)(F)C(F)(F)F [Perfluorohexanoic acid]
Method: as §1

[4] = compound: O=C(O)C(F)(F)OC(F)(F)C(F)(F)OC(F)(F)C(F)(F)C(F)(F)C(F)(F)F [Perfluoro-3,6-dioxadecanoic acid]
Method: as §1

[5] = compound: O=C(O)CCC(F)(F)C(F)(F)C(F)(F)C(F)(F)C(F)(F)F [2H,2H,3H,3H-Perfluorooctanoic acid]
Method: as §1

Row | Test System | level (log10) (1-(Perfluorohexyl)octane; 6700 nM) | level (log10) (1-(Perfluorohexyl)octane; 20000 nM) | level (log10) ([1]; 6700 nM) | level (log10) ([1]; 20000 nM) | level (log10) ([1]; 60000 nM) | level (log10) ([2]; 6700 nM) | level (log10) ([2]; 20000 nM) | level (log10) ([3]; 1500 nM) | level (log10) ([3]; 4400 nM) | level (log10) ([3]; 13000 nM) | level (log10) ([3]; 40000 nM) | level (log10) (Perfluorohexanoic acid; 6700 nM) | level (log10) (Perfluorohexanoic acid; 20000 nM) | level (log10) (Perfluorohexanoic acid; 60000 nM) | level (log10) ([4]; 6700 nM) | level (log10) ([4]; 20000 nM) | level (log10) ([4]; 60000 nM) | level (log10) ([5]; 6700 nM) | level (log10) ([5]; 20000 nM) | level (log10) ([5]; 60000 nM)
1 | BT:PBMC Cytotoxicity | 0 ± 0.013 | 0.0225 ± 0.0021 | 0.0045 ± 0.019 | 0.016 ± 0.0099 | 0.0445 ± 0.011 | -0.01 ± 0.0042 | 0.0305 ± 0.059 | -0.0035 ± 0.00071 | 0.0245 ± 0.005 | 0.018 ± 0.011 | 0.0165 ± 0.029 | -0.024 ± 0.028 | -0.0405 ± 0.028 | 0.004 ± 0.0057 | 0.017 ± 0.028 | 0.0265 ± 0.0021 | 0.0915 ± 0.005 | 0.03 ± 0.021 | 0.0185 ± 0.033 | 0.019 ± 0.017
2 | BT:sIL-17F | 0.083 ± 0.033 | 0.089 ± 0.0071 | 0.016 ± 0.18 | 0.066 ± 0.56 | -0.385 ± 0.26 | -0.019 ± 0.058 | -0.0085 ± 0.028 | -0.0115 ± 0.1 | -0.02 ± 0.048 | 0.0775 ± 0.067 | 0.004 ± 0.09 | -0.081 ± 0.0014 | -0.002 ± 0.081 | -0.047 ± 0.031 | -0.016 ± 0.055 | -0.0335 ± 0.12 | -0.021 ± 0.1 | -0.016 ± 0.058 | -0.0575 ± 0.059 | -0.01 ± 0.064
3 | BF4T:CCL2/MCP-1 | -0.014 ± 0.028 | 0.0175 ± 0.005 | -0.022 ± 0.011 | -0.049 ± 0.025 | -0.0785 ± 0.083 | 0.0095 ± 0.016 | 0.0045 ± 0.012 | 0.025 ± 0.0028 | 0.0195 ± 0.028 | 0.035 ± 0.0042 | 0.0175 ± 0.013 | -0.0045 ± 0.0021 | -0.012 ± 0.024 | -0.0015 ± 0.052 | -0.175 ± 0.031 | -0.095 ± 0.016 | -0.16 ± 0.052 | 0.0285 ± 0.015 | -0.011 ± 0.031 | -0.0235 ± 0.096
4 | BF4T:CD90 | -0.004 ± 0.0028 | -0.013 ± 0.0071 | -0.006 ± 0.0042 | -0.005 | -0.0065 ± 0.0078 | -0.0125 ± 0.011 | -0.005 ± 0.0042 | -0.0015 ± 0.016 | -0.002 ± 0.016 | -0.001 ± 0.013 | 0.005 ± 0.0014 | -0.0045 ± 0.011 | -0.0005 ± 0.011 | -0.007 ± 0.011 | -0.023 ± 0.0099 | -0.004 ± 0.0014 | 0.017 ± 0.0071 | -0.018 ± 0.011 | -0.019 ± 0.0014 | -0.02 ± 0.02
5 | LPS:IL-1alpha | -0.0215 ± 0.016 | 0.001 ± 0.0057 | 0.0405 ± 0.071 | 0.107 ± 0.067 | 0.124 ± 0.078 | -0.031 ± 0.071 | -0.045 ± 0.09 | 0.0655 ± 0.088 | -0.0155 ± 0.06 | 0.0405 ± 0.042 | 0.0445 ± 0.018 | 0.0135 ± 0.0064 | 0.0145 ± 0.0092 | -0.003 ± 0.02 | -0.008 ± 0.0085 | -0.0225 ± 0.03 | -0.04 ± 0.013 | 0.0025 ± 0.00071 | 0.029 ± 0.035 | 0.0415 ± 0.00071
6 | LPS:sPGE2 | 0.011 ± 0.018 | 0.02 ± 0.0042 | -0.011 ± 0.0028 | 0.038 ± 0.0028 | 0.0305 ± 0.032 | 0.0005 ± 0.011 | 0.0255 ± 0.019 | 0.0325 ± 0.016 | 0.0275 ± 0.049 | -0.052 ± 0.034 | -0.022 ± 0.061 | 0.025 ± 0.052 | 0.013 ± 0.021 | -0.009 ± 0.041 | -0.105 ± 0.011 | -0.161 ± 0.0078 | -0.248 ± 0.03 | -0.0095 ± 0.033 | -0.08 ± 0.0014 | -0.111 ± 0.049
7 | BF4T:PAI-I | 0.0075 ± 0.026 | 0.0005 ± 0.028 | 0.0005 ± 0.018 | 0.0015 ± 0.028 | 0.0285 ± 0.033 | 0.014 ± 0.0028 | 0.0245 ± 0.029 | 0.0025 ± 0.028 | 0.005 ± 0.017 | 0.007 ± 0.02 | 0.0235 ± 0.0021 | 0.011 | 0.004 ± 0.0028 | 0.0145 ± 0.0064 | -0.057 ± 0.011 | -0.0575 ± 0.005 | -0.054 ± 0.042 | -0.005 ± 0.014 | -0.0155 ± 0.016 | -0.024 ± 0.014
